The source of these data is paper PMC7531004, “Discovery of gramicidin A analogues with altered activities by multidimensional screening of a one-bead-one-compound library” (Nature Communications, 2020).

Data set [1] concerns Streptococcus pyogenes SSI-9. The data set can be described thus: Antibacterial activity assay of bead-derived peptides (three concentrations). The format is cell-based. Also noted: key: +++: inhibition by the 640-fold diluted peptide solution; ++: inhibition by the 160-fold diluted solution; +: inhibition by the 40-fold diluted solution; -: no inhibition. To be noted: S. pyogenes, bead-derived peptide solution, three concentrations. Put shortly: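 Undiluted, 4-fold and 16-fold DMSO-diluted peptide stocks; S. pyogenes SSI-9, 2 × 10^5 CFU, cation-adjusted MHB (50 mg/L Ca2+, 25 mg/L Mg2+) + 5% laked horse blood; 37 °C, 18 h; readout = cell pellet visible or not.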

For data set [2] the following is noted: cell viability/%. Put shortly: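 P388 cells at 1 × 10^4 cells/mL (final) were exposed to library peptides (stocks diluted 250-fold in RPMI1640/10% FBS) for 92 h at 37 °C, 5% CO2. Viable cells were counted by WST-1/1-methoxy PMS (4 h), absorbance 415 nm, and expressed as cell viability (%).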
Data set [3] in a line: H+/Na+ transport assay of bead-derived peptides (one-point).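 Note: relative to parent gramicidin A activity set to 1.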 The settings on record: bead-derived peptide solution, EYPC/EYPG LUVs. Also noted: key: relative activity; mean of two control wells = 1.00. The format is biochemical. A digest of the protocol: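 One-point screen: peptide + pyranine-loaded LUVs, 30 min RT with vortexing, 96-well. Read-out is fluorescence intensity scaled as 100 × (Ix – I0)/(Imax – I0). Imax from Triton X-100, I0 from untreated vesicles, and the mean of the two control wells is set to 1.00.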

The structures appear in SMILES notation. Where a SMILES comes first, the peptide text is derived from it. [ ]: non-standard residue; d: D form. The star is where a group is joined. NHCH2CH2OH = OCCN*; For = O=C*

With `CC(C)C[C@@H](NC(=O)[C@H](Cc1c[nH]c2ccccc12)NC(=O)[C@@H](CC(C)C)NC(=O)[C@@H](NC(=O)[C@H](NC(=O)[C@H](C)NC(=O)[C@H](NC(=O)[C@H](C)NC(=O)CNC(=O)[C@@H](NC=O)C(C)C)C(C)C)[C@H](C)O)C(C)C)C(=O)N[C@@H](Cc1c[nH]c2ccccc12)C(=O)N[C@H](CC(C)C)C(=O)N[C@@H](Cc1c[nH]c2ccccc12)C(=O)N[C@@H](C(=O)N[C@@H](Cc1c[nH]c2ccccc12)C(=O)NCCO)C(C)C` [compound 2495] (For-VGA[dV]A[dT]V[dL]W[dL]W[dL]W[dV]W-NHCH2CH2OH), the antibacterial activity result in data set [1] is reported as “-”. The viability in data set [2] came out at 100%. Also, the “H+/Na+ transport activity normalized against the value of 1 (1.00)” value (“H+/Na+ transport activity normalized” below) in data set [3] is reported as 1.22.

Turning to `CNC(=O)C[C@@H](NC(=O)[C@H](C)NC(=O)[C@H](NC(=O)[C@H](C)NC(=O)CNC(=O)[C@@H](NC=O)C(C)C)C(C)C)C(=O)N[C@H](C(=O)N[C@H](CC(C)C)C(=O)N[C@@H](Cc1c[nH]c2ccccc12)C(=O)N[C@@H](C(=O)N[C@@H](Cc1c[nH]c2ccccc12)C(=O)N[C@@H](C(=O)N[C@@H](Cc1c[nH]c2ccccc12)C(=O)N[C@@H](C(=O)N[C@@H](Cc1c[nH]c2ccccc12)C(=O)NCCO)C(C)C)C(C)C)C(C)C)C(C)C` [compound 13148] (For-VGA[dV]A[dD](NHMe)V[dL]W[dV]W[dV]W[dV]W-NHCH2CH2OH), in data set [1], the antibacterial activity entry is “-”. Also, the viability in data set [2] stood at 93.6%. Further, the “H+/Na+ transport activity normalized” value in data set [3] was determined as 1.03.

With `CC(C)C[C@@H](NC(=O)[C@H](Cc1c[nH]c2ccccc12)NC(=O)[C@H](NC(=O)[C@H](Cc1c[nH]c2ccccc12)NC(=O)[C@@H](CC(C)C)NC(=O)[C@H](Cc1c[nH]c2ccccc12)NC(=O)[C@@H](CC(C)C)NC(=O)[C@@H](NC(=O)[C@H](NC(=O)[C@H](C)NC(=O)[C@H](NC(=O)[C@H](C)NC(=O)CNC(=O)[C@@H](NC=O)C(C)C)C(C)C)C(C)C)C(C)C)C(C)C)C(=O)N[C@@H](Cc1c[nH]c2ccccc12)C(=O)NCCO` [compound 12432] (For-VGA[dV]A[dV]V[dL]W[dL]W[dV]W[dL]W-NHCH2CH2OH), the antibacterial activity entry in data set [1] is reported as “-”. This compound returned a viability in data set [2] of 6.4%. Further, in data set [3], the “H+/Na+ transport activity normalized” value worked out at 1.01.

On to `CC(C)C[C@@H](NC(=O)[C@H](C)NC(=O)CNC(=O)[C@@H](NC=O)C(C)C)C(=O)N[C@@H](C)C(=O)N[C@@H](C(=O)N[C@H](C(=O)N[C@H](CC(C)C)C(=O)N[C@@H](Cc1c[nH]c2ccccc12)C(=O)N[C@@H](C(=O)N[C@@H](Cc1c[nH]c2ccccc12)C(=O)N[C@@H](C(=O)N[C@@H](Cc1c[nH]c2ccccc12)C(=O)N[C@@H](C(=O)N[C@@H](Cc1c[nH]c2ccccc12)C(=O)NCCO)C(C)C)C(C)C)C(C)C)C(C)C)[C@H](C)O` [compound 3733] (For-VGA[dL]A[dT]V[dL]W[dV]W[dV]W[dV]W-NHCH2CH2OH), for which, in data set [1], the antibacterial activity entry is “-”. The compound also showed a viability in data set [2] of 100%. Besides, the “H+/Na+ transport activity normalized” value in data set [3] was 1.11.

Take `CC(C)C[C@@H](NC(=O)[C@H](C)NC(=O)[C@H](NC(=O)[C@H](C)NC(=O)CNC(=O)[C@@H](NC=O)C(C)C)C(C)C)C(=O)N[C@H](C(=O)N[C@H](CC(C)C)C(=O)N[C@@H](Cc1c[nH]c2ccccc12)C(=O)N[C@H](CC(C)C)C(=O)N[C@@H](Cc1c[nH]c2ccccc12)C(=O)N[C@H](CC(C)C)C(=O)N[C@@H](Cc1c[nH]c2ccccc12)C(=O)N[C@@H](C(=O)N[C@@H](Cc1c[nH]c2ccccc12)C(=O)NCCO)[C@H](C)O)C(C)C` [compound 129] (For-VGA[dV]A[dL]V[dL]W[dL]W[dL]W[dT]W-NHCH2CH2OH): the antibacterial activity result in data set [1] is given as “+”. Further, in data set [2], the viability turned out to be 100%. In data set [3], the “H+/Na+ transport activity normalized” value came out at 1.05.

For the compound `CC(C)C[C@@H](NC(=O)[C@H](C)NC(=O)CNC(=O)[C@@H](NC=O)C(C)C)C(=O)N[C@@H](C)C(=O)N[C@@H](C(=O)N[C@H](C(=O)N[C@H](CC(C)C)C(=O)N[C@@H](Cc1c[nH]c2ccccc12)C(=O)N[C@H](CC(C)C)C(=O)N[C@@H](Cc1c[nH]c2ccccc12)C(=O)N[C@H](CC(C)C)C(=O)N[C@@H](Cc1c[nH]c2ccccc12)C(=O)N[C@H](CC(C)C)C(=O)N[C@@H](Cc1c[nH]c2ccccc12)C(=O)NCCO)C(C)C)C(C)C` [compound 8397] (For-VGA[dL]A[dV]V[dL]W[dL]W[dL]W[dL]W-NHCH2CH2OH), the antibacterial activity entry in data set [1] was “+”. This compound yielded a viability in data set [2] of 0%. In addition, in data set [3], the “H+/Na+ transport activity normalized” value is 1.12.

With `CNC(=O)C[C@@H](NC(=O)[C@H](Cc1c[nH]c2ccccc12)NC(=O)[C@H](NC(=O)[C@H](Cc1c[nH]c2ccccc12)NC(=O)[C@H](NC(=O)[C@H](Cc1c[nH]c2ccccc12)NC(=O)[C@H](NC(=O)[C@@H](NC(=O)[C@@H](CC(C)C)NC(=O)[C@H](C)NC(=O)[C@@H](CC(C)C)NC(=O)[C@H](C)NC(=O)CNC(=O)[C@@H](NC=O)C(C)C)C(C)C)C(C)C)C(C)C)C(C)C)C(=O)N[C@@H](Cc1c[nH]c2ccccc12)C(=O)NCCO` [compound 10002] (For-VGA[dL]A[dL]V[dV]W[dV]W[dV]W[dD](NHMe)W-NHCH2CH2OH), the antibacterial activity entry in data set [1] is “-”. For the same compound, in data set [2], the viability turned out to be 100%. Further, the “H+/Na+ transport activity normalized” value in data set [3] worked out at 1.01.

`CC(C)C[C@@H](NC(=O)[C@H](C)NC(=O)CNC(=O)[C@@H](NC=O)C(C)C)C(=O)N[C@@H](C)C(=O)N[C@@H](C(=O)N[C@H](C(=O)N[C@@H](C(=O)N[C@@H](Cc1c[nH]c2ccccc12)C(=O)N[C@H](CC(C)C)C(=O)N[C@@H](Cc1c[nH]c2ccccc12)C(=O)N[C@@H](C(=O)N[C@@H](Cc1c[nH]c2ccccc12)C(=O)N[C@H](CC(C)C)C(=O)N[C@@H](Cc1c[nH]c2ccccc12)C(=O)NCCO)C(C)C)C(C)C)C(C)C)[C@H](C)O` [compound 5555] (For-VGA[dL]A[dT]V[dV]W[dL]W[dV]W[dL]W-NHCH2CH2OH): the antibacterial activity result in data set [1] was “-”. Also, in data set [2], the viability is 100%. The “H+/Na+ transport activity normalized” value in data set [3] came to 1.22.

On to `CC(C)C[C@@H](NC(=O)[C@H](Cc1c[nH]c2ccccc12)NC(=O)[C@@H](CC(C)C)NC(=O)[C@@H](NC(=O)[C@H](NC(=O)[C@H](C)NC(=O)[C@H](NC(=O)[C@H](C)NC(=O)CNC(=O)[C@@H](NC=O)C(C)C)C(C)C)C(C)C)C(C)C)C(=O)N[C@@H](Cc1c[nH]c2ccccc12)C(=O)N[C@@H](C(=O)N[C@@H](Cc1c[nH]c2ccccc12)C(=O)N[C@@H](C(=O)N[C@@H](Cc1c[nH]c2ccccc12)C(=O)NCCO)C(C)C)C(C)C` [compound 100] (For-VGA[dV]A[dV]V[dL]W[dL]W[dV]W[dV]W-NHCH2CH2OH), for which the antibacterial activity result in data set [1] is “++”. The same compound gave a viability in data set [2] of 9.5%. In data set [3], the “H+/Na+ transport activity normalized” value was found to be 1.18.

As for `CC(C)C[C@@H](NC(=O)[C@H](C)NC(=O)CNC(=O)[C@@H](NC=O)C(C)C)C(=O)N[C@@H](C)C(=O)N[C@@H](C(=O)N[C@H](C(=O)N[C@@H](C(=O)N[C@@H](Cc1c[nH]c2ccccc12)C(=O)N[C@@H](C(=O)N[C@@H](Cc1c[nH]c2ccccc12)C(=O)N[C@@H](C(=O)N[C@@H](Cc1c[nH]c2ccccc12)C(=O)N[C@H](CC(C)C)C(=O)N[C@@H](Cc1c[nH]c2ccccc12)C(=O)NCCO)C(C)C)C(C)C)C(C)C)C(C)C)C(C)C` [compound 5056] (For-VGA[dL]A[dV]V[dV]W[dV]W[dV]W[dL]W-NHCH2CH2OH), in data set [1], the antibacterial activity result was “+”. The compound further gave a viability in data set [2] of 100%. The “H+/Na+ transport activity normalized” value in data set [3] came out at 1.01.

Turning to `CC(C)C[C@@H](NC(=O)[C@H](Cc1c[nH]c2ccccc12)NC(=O)[C@H](NC(=O)[C@@H](NC(=O)[C@H](NC(=O)[C@H](C)NC(=O)[C@H](NC(=O)[C@H](C)NC(=O)CNC(=O)[C@@H](NC=O)C(C)C)C(C)C)C(C)C)C(C)C)C(C)C)C(=O)N[C@@H](Cc1c[nH]c2ccccc12)C(=O)N[C@@H](C(=O)N[C@@H](Cc1c[nH]c2ccccc12)C(=O)N[C@@H](C(=O)N[C@@H](Cc1c[nH]c2ccccc12)C(=O)NCCO)C(C)C)C(C)C` [compound 169] (For-VGA[dV]A[dV]V[dV]W[dL]W[dV]W[dV]W-NHCH2CH2OH), the antibacterial activity result in data set [1] is recorded as “++”. Further, the viability in data set [2] came out at 100%. In addition, in data set [3], the “H+/Na+ transport activity normalized” value is reported as 1.04.

Regarding `CC(C)C[C@@H](NC(=O)[C@H](C)NC(=O)CNC(=O)[C@@H](NC=O)C(C)C)C(=O)N[C@@H](C)C(=O)N[C@@H](C(=O)N[C@H](C(=O)N[C@H](CC(C)C)C(=O)N[C@@H](Cc1c[nH]c2ccccc12)C(=O)N[C@H](CC(C)C)C(=O)N[C@@H](Cc1c[nH]c2ccccc12)C(=O)N[C@@H](C(=O)N[C@@H](Cc1c[nH]c2ccccc12)C(=O)N[C@@H](C(=O)N[C@@H](Cc1c[nH]c2ccccc12)C(=O)NCCO)C(C)C)[C@H](C)O)C(C)C)[C@H](C)O` [compound 381] (For-VGA[dL]A[dT]V[dL]W[dL]W[dT]W[dV]W-NHCH2CH2OH), the antibacterial activity entry in data set [1] is given as “-”. In data set [2], this compound came in with a viability of 100%. Besides, the “H+/Na+ transport activity normalized” value in data set [3] turned out to be 1.03.
